From US20260325485A1, “COMPOSITIONS AND METHODS FOR TREATING PANCREATITIS” (The United States Government as represented by the …, priority 2022, published 2026) come the findings set out here.

Molecules are shown by their SMILES.

In one assay the test system is pancreas. The assay is described as follows: Pancreatic total cholesterol and lipids in acute pancreatitis models in WT mice. The note with it: Arg-AP, CER-AP or CDE-AP. In kind it is in vivo, mouse. The procedure: FIGS. 8A-8M show derangement of cholesterol metabolism in experimental pancreatitis. Characteristics of cholesterol metabolism were measured, as detailed in FIGS. 4A-4R, in pancreas of WT mice subjected to pancreatitis induced with cerulein (CER-AP), L-arginine (Arg-AP), or CDE diet (CDE-AP) (A, B, and E-G); ex vivo pancreatitis induced in WT mouse (C and I-M) or human acinar cells (D) with 100 nM CCK (CCK-AP) or 1 mM carbachol; and isolated pancreatic mitochondria (H). (B) Cholesterol ester (CE) heatmap; each column represents an individual mouse. (F) IB analysis of the indicated proteins. (G) LAL activity was measured by a fluorogenic assay (n=6 mice per condition). (H) Cholesterol content was measured by enzymatic assay. (I-M) Filipin colocalization with indicated proteins was quantified as detailed in FIGS. 2A-2L. Each symbol in A, C-E, and H represents an individual mouse, or cell or mitochondria preparation (n=3-15 per condition). Each symbol in J, K, and M corresponds to 20-30 cells in a different field (n=10-20 fields from 3 cell preparations per condition). Values are mean±SEM. *P<0.05, **P<0.01, ***P<0.001 vs. the same parameter in control/untreated pancreas, acinar cells or isolated mitochondria. Significance was determined by 2-tailed Student's t test (B, E, H, J, K, and M) or 1-way ANOVA followed by Tukey's multiple comparison test (A, C, and D). Scale bars: 10 μm.
Parameters of cholesterol metabolism were measured in (A, B, E, F) pancreas of mice subjected to pancreatitis induced with cerulean (CER-AP), L-arginine (Arg-AP), or combination of EtOH+palmitoleic acid (EtOH+POA); and (C) ex-vivo models on mouse and human acinar cells treated for 1 h with 100 nM CCK, […] or 500 μM TLCS. […] (B, C) Total cholesterol content was measured with cholesterol assay kit (Abcam, ab65390). […] Signficance was determined by 2-tailed student's t test. […]
Total cholesterol content was measured with Cholesterol Assay kit per manufacturer's instructions. […]
Triglycerides (TAG) content was measured using Triglyceride Assay kit. […]

For a further assay, the system named is trypsin. In words: Trypsin activity in Gnptab−/− acinar cells. The format is cell-based, mouse. To be noted: 3 hours; 50 μM CA-074Me or 20 nM BafA1. Here is the method:
FIGS. 6A-6R show mechanisms mediating increased trypsin activity in Gnptab−/− pancreas. Trypsin activity and its regulation were analyzed in pancreatic (A, C, and D) tissue, (B and P-R) acinar cells, (E-H and O) lobules, and (I-N) subcellular fractions. In B, acinar cells were incubated for 3 hours without and with 20 nM BafAl or 50 μM CatB inhibitor CA-074Me; in P-R, with the cholesterol chelator methyl-β-cyclodextrin (MCD) at the indicated concentrations. In E-H, pancreatic lobules were double stained for TAP and LC3 or LAMP2; in O, for TAP and filipin. Quantitative colocalization analysis was done as detailed in FIG. 2. Each symbol in A, B, J-N, Q, and R represents an individual mouse or cell preparation (n=3-8 per condition). Each symbol in D, G, and H corresponds to 20 to 30 cells in a different field (n=9-20 fields from 3 WT and 3 KO mice or lobule preparations). Values are mean±SEM. **P<0.01, ***P<0.001 vs. WT tissue/lobules (A, G, and H) or corresponding WT subcellular fraction (K and M). ##P<0.01 vs. no inhibitors (B) or MCD (Q and R). ††P<0.01, †††P<0.001 vs. the other two fractions (L and N). Significance was determined by 2-tailed Student's t test (A, G, and H) or 1-way ANOVA followed by Tukey's multiple comparison test (B, K-N, Q, and R). Scale bars: 10 μm.
Activities of cathepsin (Cat) B and L, caspase-3, trypsin, and lysosomal acid lipase (LAL) were measured in pancreatic tissue or cell homogenates and subcellular fractions with fluorogenic assays using substrates specific for CatB (Z-Arg-Arg-AMC), CatL (Z-Phe-Arg-AMC), caspase-3-like ([…]), trypsin (Boc-Gln-Ala-Arg-AMC), as previously described (1-4, 6, 7); and for LAL (4-methylumbelliferyl oleate), as in (17). In measurements of CatL activity, the assay buffer also contained 50 μM CA-074me, a CatB inhibitor. LAL activity was measured in the absence and presence of the LAL inhibitor lalistat (100 μM) as the difference between these values (17).

The next assay concerns neutral lipids. The assay is described as follows: BODIPY 493/503 staining of neutral lipids in acinar cells. The format is cell-based, mouse. To be noted: BafA1 20 nM. Here is the method:
FIGS. 13A-13G show neutral lipids accumulate in LE/Ly and autophagic compartments of Gnptab^−/− pancreas. Characteristics of neutral lipid metabolism were measured in (A-C,F,G) pancreatic tissue of WT, Gnptab^−/− (KO) and Atg5^Δpan mice, and (D,E) WT and KO acinar cells treated with Bafilomycin A1 (BafA1; 20 nM). (A) EM showing lipid inclusions in KO pancreas. (B-E) Tissue or cells were stained with BODIPY 493/503 for neutral lipids; BODIPY fluorescence intensity was quantified with Volocity software, normalized to the number of nuclei (DAPI) in the field, and expressed relative to WT control. […] (F,G) Perilipins (PLINs) were analyzed by immunoblot; their band intensities were densitometrically quantified, normalized to GAPDH in the same sample and, further, to WT. […] Significance was determined by 2-tailed Student's t test (G) or 1-way ANOVA followed by Tukey's multiple comparisons test (C,E). […]
All fluorescence images were acquired with a Zeiss LSM710 confocal microscope using x63 objective and preset within-experiment image acquisition settings. Quantitative fluorescence analysis was performed with Volocity software (PerkinElmer). Overlap between 2 fluorescent labels was measured using Manders-Costes coefficient. Pearson's colocalization coefficient was calculated if both immunolabeled proteins had the same (e.g. “dotted”) staining pattern.

In the next assay the test system is LC3-II. The assay is described as follows: Autophagic flux analysis: LC3-II immunoblot in pancreatic acinar cells. The format is cell-based, mouse. The note with it: 30 minutes. Here is the method:
FIGS. 2A-2L show Gnptab ablation stimulates autophagosome formation and blocks autophagic flux in pancreatic acinar cells. Parameters of autophagy were measured in WT and […] pancreatic (A-C) acinar cells and (D-L) tissue. (A-C) Acinar cells incubated for 30 minutes with and without bafilomycin A1 (BafA1; 20 nM); LC3-II band intensity was quantified by densitometry, normalized to ERK in the same sample, and LC3-II/ERK ratios further normalized to untreated WT cells (control). Values are mean±SEM; each symbol represents an individual cell preparation (n=4-6 per condition). sP<0.05; paired 2-tailed Student's t test. (D) IB analysis of autophagic markers/mediators. Ub, ubiquitylated proteins. (E-K) Immunofluorescence colocalization analysis for LC3 and LAMP1 (E, G, and H), and LC3 and Stx17 (F and I-K) in WT and KO pancreas. In this and other figures, colocalization was quantified with Volocity software using Manders-Costes (percentage colocalization) and Pearson's coefficients. Values are mean±SEM; each symbol corresponds to 20 to 30 cells in a different field (n=6-9 fields from 3 mice per condition). ***P<0.001 vs. WT; 2-tailed Student's t test. (L). EM showing abnormally large autolysosomes with partially degraded material in pancreas of KO mice. Scale bars: 10 μm (E and F) and 3 μm (L).
To further assess the effects of Gnptab KO on autophagy, autophagic flux analysis was performed by measuring changes in LC3-II in acinar cells incubated with and without the lysosomal v-ATPase inhibitor, bafilomycin A1 (BafA1) (FIG. 2, A-C). The number of autophagic vacuoles in a cell is a net balance between autophagosome formation and their degradation through autophagic flux. Thus, the increase in LC3-II observed in KO pancreas (FIG. 1F and FIG. 2D; see also FIG. 17G) could have resulted from both induction of autophagosome formation and the inhibition of flux. […]
Immunoblots were developed using enhanced chemiluminescence detection kit (Pierce), and band intensities were quantified by densitometry using FluorChem HD2 imaging system (Alpha Innotech/ProteinSimple).
Background: Immunoblotting shows a protein as a band on a membrane.

Turning to `N=C(N)NCCC[C@H](N)C(=O)O` [L-arginine], the “pancreatic total cholesterol, AP models” value with pancreas is on record as “increases”.
For `CO/C1=C\C(C)=C\[C@@H](C)[C@@H](O)[C@@H](C)C/C(C)=C/C=C/[C@H](OC)[C@@H]([C@@H](C)[C@@H](O)[C@H](C)[C@@]2(O)C[C@@H](O)[C@H](C)[C@@H](C(C)C)O2)OC1=O` [BafA1, bafilomycin A1], the “Reduction of trypsin activity, Gnptab−/− acinar cells” value with trypsin is listed as “by half”. Besides, in the assay with neutral lipids (Gnptab−/− acinar cells), the “BODIPY staining, KO” value is “no additional effect”. For the same compound, the “BODIPY staining increase, WT” value in the assay with neutral lipids (WT acinar cells) is given as “approximately 3 fold”. Moreover, in the assay with LC3-II (BafA1 20 nM, Gnptab−/− vs WT acinar cells), the “LC3-II levels in KO compared with WT in presence of BafA1” value is “approximately 11 fold”. In addition, the “LC3-II increase by BafA1, KO” value in the assay on LC3-II (Gnptab−/− (KO) acinar cells, 20 nM) is “no increase”. The “LC3-II increase by BafA1, WT” value in the assay with LC3-II (WT acinar cells, 20 nM) is “approximately 4 fold”.
